Where two headings read alike, the source gives them in different places.
Assays:
[1] = molecular target: Wee1 kinase (h) (Homo sapiens, UniProt P30291); test: Wee1 kinase (h) detection method, [γ-33P]-ATP filter assay; type: biochemical; conditions: for Inh. (%) of Wee1 kinase: 10 μM ATP, 40 minutes at room temperature
Description: Wee1 kinase (h) was incubated with 20 mM Tris/HCl pH 8.5, 0.2 mM EDTA, 500 μM […], 10 mM MgAcetate and 10 μM [γ-^33P]-ATP. Then the stock solution of all compounds under test with 50× concentration in 100% DMSO was added to make the final concentration of 1/0.1/0.01 μM, and then mixed the mixture well. The reaction was initiated by the addition of the Mg/ATP mix. After incubation for 40 minutes at room temperature, the reaction was stopped by the addition of phosphoric acid to a concentration of 0.5%. 10 μL of the reaction liquor was then spotted onto a P30 filtermat and washed four times in 0.425% phosphoric acid and once in methanol prior to drying and scintillation counting. Each compound sample was duplicated in duplicate. The negative control was lack of all the components of Wee1 enzyme, and the positive was addition of 30% phosphoric acid to terminate the reaction. The Wee1 inhibitor AZD1775 was detected at 10/0.01 μM at the same experiment condition.

[2] = test system: LoVo cells; test: MTT based cell viability assay on LoVo cells; conditions: for IC50: Homo sapiens, 72 h, read-out: IC50, growth inhibition on LoVo cells
Description: Determination of the Cell Growth Inhibiting Activity of 6-(2,6-dichlorophenyl)-2-((4-(4-methylpiperazin-1-yl)phenyl)amino)imidazo[1,2-b]pyrimido[4,5-d]pyridazin-5(6H)-one and Analogs Thereof on LoVo Cells Using a MTT Based Cell Viability Assay
The thawed LoVo cells were cultured and passaged to the third generation, and the growth state was good and the confluence was about 90%, which began to be used in the experiment. The LoVo cells were digested with trypsin, centrifuged at 800 rpm for 5 min, the supernatant was discarded, resuspended with fresh culture medium, and counted. 6000 Cells are seeded to each well of a 96-well cell culture plate. The cells were incubated at 37° C. in a 5% CO2 cell culture incubator overnight. The tested sample (including the tested compound and the reference compound AZD1775) was diluted continuously to 8 concentrations (the last concentration was negative control of DMSO) with a 1:3 and 1:10 dilution in DMSO respectively: 10 μM, 3.3 μM, 1 μM, 0.33 μM, 0.1 μM, 0.033 μM, 0.01 μM, 0 μM (the final concentration of DMSO was 1%). 5 μL of each concentration was added to 120 μL of culture medium (25 times diluted), and the mixture was shaken well. The overnight cells were taken and the culture medium was removed, 195 μL of fresh culture medium was added to each well, and 5 μL of diluted culture medium containing the corresponding concentration of the tested sample was added respectively, and the culture plate was then placed in the 5% CO2 cell culture incubator at 37° C. for 3 d. After removing the original solution and adding 100 μL of fresh serum-free DMEM culture medium containing MTT (0.5 mg/mL) per well, the culture was continued. The original solution was removed after 4 hrs and 100 μl DMSO was added to each well. The 96-well cell culture plates were shaken away from light for 10 min and readed in a multifunctional reader at 552/630/690 nm to give absorption values (OD values). The data were analyzed using a graphic software (Graph Pad Prism 5.0) and the inhibitory activity of the compound on cell proliferation was plotted in terms of cell survival and compound concentration. The IC50 values were fitted by the S-shaped dose-response curve equation as follows: Y=100/(1+10^(Log C−Log IC50)), where C was the concentration of testing compounds.

[3] = test system: NCI-H1299 cells; test: MTT based cell viability assay on NCI-H1299 cells; conditions: for IC50: Homo sapiens, read-out: IC50, growth inhibition on NCI-H1299 cells
Description: Determination of the Cell Growth Inhibiting Activity of 6-(2,6-dichlorophenyl)-2-((4-(4-methylpiperazin-1-yl)phenyl)amino)imidazo[1,2-b]pyrimido[4,5-d]pyridazin-5(6H)-one and Analogs on NCI-H1299 Cells Using a MTT Based Cell Viability Assay
The thawed NCI-H1299 cells were cultured and passaged to the third generation, and the growth state was good and the confluence was about 90%, which began to be used in the experiment. The NCI-H1299 cells were digested with trypsin, centrifuged at 800 rpm for 5 min, the supernatant was discarded, resuspended with fresh culture medium, and counted. 1000 Cells are seeded to each well of a 96-well plate. The cells are incubated at 37° C. in a 5% CO2 cell culture incubator overnight. The tested sample (including the tested compound and the reference compound AZD1775) was diluted continuously to 8 concentrations (the last concentration was negative control of DMSO) with a 1:3 and 1:10 dilution in DMSO respectively: 10 μM, 3.3 μM, 1 μM, 0.33 μM, 0.1 μM, 0.033 μM, 0.01 μM, 0 μM (the final concentration of DMSO was 1%). 5 μL of each concentration was added to 120 μL of culture medium (25 times diluted), and the mixture was shaken well. The overnight cells were taken and the culture medium was removed, 195 μL of fresh culture medium was added to each well, and 5 μL of diluted culture medium containing the corresponding concentration of the tested sample was added respectively, and the culture plate was then placed in the 5% CO2 cell culture incubator at 37° C. for 3 d. After removing the original solution and adding 100 μL of fresh serum-free DMEM culture medium containing MTT (0.5 mg/mL) per well, the culture was continued. The original solution was removed after 4 hrs and 100 μl DMSO was added to each well. The 96-well cell culture plates were shaken away from light for 10 min and readed in a multifunctional reader at 552/630/690 nm to give absorption values (OD values). The data were analyzed using a graphic software (Graph Pad Prism 5.0) and the inhibitory activity of the compound on cell proliferation was plotted in terms of cell survival and compound concentration. The IC50 values were fitted by the S-shaped dose-response curve equation as follows: Y=100/(1+10^(Log C−Log IC50)), where C was the concentration of testing compounds.

[4] = 72 h, NCI-H1299 cells, 3 d, MTT

Sequence of Wee1 kinase (h) (P30291 whole entry): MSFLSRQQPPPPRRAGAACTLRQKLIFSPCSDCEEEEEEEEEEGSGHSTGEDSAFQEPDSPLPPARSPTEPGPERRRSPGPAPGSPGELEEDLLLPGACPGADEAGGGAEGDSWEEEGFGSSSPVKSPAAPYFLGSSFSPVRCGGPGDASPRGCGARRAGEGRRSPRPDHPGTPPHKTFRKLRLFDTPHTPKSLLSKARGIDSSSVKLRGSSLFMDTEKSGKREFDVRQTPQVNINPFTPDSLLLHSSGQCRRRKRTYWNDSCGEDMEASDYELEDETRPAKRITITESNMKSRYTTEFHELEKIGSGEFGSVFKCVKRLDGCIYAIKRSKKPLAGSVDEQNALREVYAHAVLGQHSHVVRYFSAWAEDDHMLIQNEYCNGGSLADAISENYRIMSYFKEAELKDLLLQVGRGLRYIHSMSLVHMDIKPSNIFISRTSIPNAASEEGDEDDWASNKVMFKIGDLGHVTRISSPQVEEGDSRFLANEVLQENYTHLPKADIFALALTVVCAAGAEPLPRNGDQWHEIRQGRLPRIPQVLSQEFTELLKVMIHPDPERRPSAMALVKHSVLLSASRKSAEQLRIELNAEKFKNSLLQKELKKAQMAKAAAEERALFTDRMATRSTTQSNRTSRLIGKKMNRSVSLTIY

Row | SMILES | Inh. (%) of Wee1 kinase ([1]; C 1 μm) | IC50 ([2]; LoVo cells, 3 d, MTT) | IC50 [3, 4] | IC50 ([2]; LoVo) | IC50 ([3]; NCI-H1299, 72 h) | also measured
1 | CN1CCN(c2ccc(Nc3ncc4c(=O)n(-c5c(F)cccc5Cl)n5ccnc5c4n3)cc2Cl)CC1 [Example 21, 6-(2-chloro-6-fluorophenyl)-2-((3-chloro-4-(4-methylpiperazin-1-yl)phenyl)amino)imidazo[1,2-b]pyrimido[4,5-d]pyridazin-5(6H)-one] | 95% | 259 nM | 511 nM | – | – | –
2 | Cc1cc(Nc2ncc3c(=O)n(-c4c(Cl)cccc4Cl)n4ccnc4c3n2)cc(F)c1N1CCC(N(C)C)CC1 [Example 37, 6-(2,6-dichlorophenyl)-2-((3-fluoro-5-methyl-4-(4-(dimethylamino)piperidin-1-yl)phenyl)amino)imidazo[1,2-b]pyrimido[4,5-d]pyridazin-5(6H)-one] | 96% | – | – | 291 nM | 187 nM | Inh. (%) of Wee1 kinase ([1]; C 0.01 μm): 13%
3 | Cc1cnc2c3nc(Nc4ccc(N5CCN(C)CC5)c(Cl)c4)ncc3c(=O)n(-c3c(Cl)cccc3Cl)n12 [Example 56, 6-(2,6-dichlorophenyl)-2-((3-chloro-4-(4-methylpiperazin-1-yl)phenyl)amino)-8-methylimidazo[1,2-b]pyrimido[4,5-d]pyridazin-5(6H)-one] | 95% | 434 nM | 540 nM | – | – | –
4 | Cc1cc(Nc2ncc3c(=O)n(-c4c(F)cccc4Cl)n4ccnc4c3n2)cc(Cl)c1N1CCN(C)CC1 [Example 23, 6-(2-chloro-6-fluorophenyl)-2-((3-chloro-5-methyl-4-(4-methylpiperazin-1-yl)phenyl)amino)imidazo[1,2-b]pyrimido[4,5-d]pyridazin-5(6H)-one] | 91% | 195 nM | 528 nM | – | – | –
5 | C[C@@H]1CN(c2ccc(Nc3ncc4c(=O)n(-c5c(Cl)cccc5Cl)n5ccnc5c4n3)cc2)C[C@H](C)N1C [Example 30, 6-(2,6-dichlorophenyl)-2-((4-((3S,5R)-3,4,5-trimethylpiperazin-1-yl)phenyl)amino)imidazo[1,2-b]pyrimido[4,5-d]pyridazin-5(6H)-one] | – | – | – | 779 nM | 508 nM | –
6 | CN1CCN(c2ccc(Nc3ncc4c(=O)n(-c5c(Cl)cccc5Cl)n5ccnc5c4n3)cc2)CC1 [Example 1, 6-(2,6-dichlorophenyl)-2-((4-(4-methylpiperazin-1-yl)phenyl)amino)imidazo[1,2-b]pyrimido[4,5-d]pyridazin-5(6H)-one] | 94% | – | – | 524 nM | 916 nM | inhibitory effect on the activity of Wee1 kinase (summary in words) [1]: good inhibitory effect; Inh. (%) of Wee1 kinase ([1]; C 0.01 μm): 11%; Inh. (%) of Wee1 kinase ([1]; C 0.1 μm): 75%; inhibitory effect on the growth of LoVo cells (summary in words) ([2]; MTT method): inhibitory effect; inhibitory effect on the growth of NCI-H1299 cell (summary in words) ([3]; MTT method): inhibitory effect
7 | Cc1cc(Nc2ncc3c(=O)n(-c4c(Cl)cccc4Cl)n4ccnc4c3n2)ccc1N1CCN(C)CC1 [Example 3, 6-(2,6-dichlorophenyl)-2-((3-methyl-4-(4-methylpiperazin-1-yl)phenyl)amino)imidazo[1,2-b]pyrimido[4,5-d]pyridazin-5(6H)-one] | 96% | – | – | 236 nM | 178 nM | Inh. (%) of Wee1 kinase ([1]; C 0.01 μm): 26%; Inh. (%) of Wee1 kinase ([1]; C 0.1 μm): 76%
8 | CN1CCN(c2ccc(Nc3ncc4c(=O)n(-c5c(F)cccc5F)n5ccnc5c4n3)cc2Cl)CC1 [Example 18, 6-(2,6-difluorophenyl)-2-((3-chloro-4-(4-methylpiperazin-1-yl)phenyl)amino)imidazo[1,2-b]pyrimido[4,5-d]pyridazin-5(6H)-one] | 87% | 579 nM | 1080 nM | – | – | –
9 | Cc1cc(Nc2ncc3c(=O)n(-c4c(Cl)cccc4Cl)n4ccnc4c3n2)ccc1N1C[C@@H](C)N(C)[C@@H](C)C1 [Example 33, 6-(2,6-dichlorophenyl)-2-((3-methyl-4-((3S,5R)-3,4,5-trimethylpiperazin-1-yl)phenyl)amino)imidazo[1,2-b]pyrimido[4,5-d]pyridazin-5(6H)-one] | – | – | – | 394 nM | 237 nM | –
10 | C[C@@H]1CN(c2ccc(Nc3ncc4c(=O)n(-c5c(Cl)cccc5Cl)n5ccnc5c4n3)cc2F)C[C@H](C)N1C [Example 31, 6-(2,6-dichlorophenyl)-2-((3-fluoro-4-((3S,5R)-3,4,5-trimethylpiperazin-1-yl)phenyl)amino)imidazo[1,2-b]pyrimido[4,5-d]pyridazin-5(6H)-one] | – | – | – | 809 nM | 672 nM | –
11 | Cc1cc(Nc2ncc3c(=O)n(-c4c(Cl)cccc4Cl)n4ccnc4c3n2)ccc1C1CCN(C)CC1 [Example 41, 6-(2,6-dichlorophenyl)-2-((3-methyl-4-(1-methylpiperidin-4-yl)phenyl)amino)imidazo[1,2-b]pyrimido[4,5-d]pyridazin-5(6H)-one] | – | – | – | 212 nM | 184 nM | –
12 | CCc1cn2c(n1)c1nc(Nc3ccc(N4CCN(C)CC4)c(C)c3)ncc1c(=O)n2-c1c(Cl)cccc1Cl [Example 60, 6-(2,6-dichlorophenyl)-2-((3-methyl-4-(4-methylpiperazin-1-yl)phenyl)amino)-9-ethylimidazo[1,2-b]pyrimido[4,5-d]pyridazin-5(6H)-one] | – | 325 nM | 161 nM | – | – | –
13 | C[C@@H]1CN(c2ccc(Nc3ncc4c(=O)n(-c5c(Cl)cccc5Cl)n5ccnc5c4n3)cc2Cl)C[C@H](C)N1C [Example 32, 6-(2,6-dichlorophenyl)-2-((3-chloro-4-((3S,5R)-3,4,5-trimethylpiperazin-1-yl)phenyl)amino)imidazo[1,2-b]pyrimido[4,5-d]pyridazin-5(6H)-one] | – | – | – | 679 nM | 515 nM | –
14 | Cc1cc(Nc2ncc3c(=O)n(-c4c(F)cccc4Cl)n4ccnc4c3n2)ccc1N1C[C@@H](C)N(C)[C@@H](C)C1 [Example 24, 6-(2-chloro-6-fluorophenyl)-2-((3-methyl-4-((3S,5R)-3,4,5-trimethylpiperazin-1-yl)phenyl)amino)imidazo[1,2-b]pyrimido[4,5-d]pyridazin-5(6H)-one] | – | 359 nM | 328 nM | – | – | –
